Test results reported in ChEMBL document CHEMBL3885861, “Open TG-GATES”.

Organism: Rattus norvegicus
Test: Open TG-GATES - Regimen: Daily Repeat
Type: toxicity, organism-based, Sprague-Dawley
Set-up: regimen Daily Repeat, gender Male, age 6 weeks
Conditions: in vivo, iv, route intravenous injection; for gamma-GTP / A/G / ALP / ALT / AST / BUN / CRE / Ca / Cl / DBIL / GLC / IP / K / LDH / Na / PL / RALB / TBIL / TC / TG / TP: tissue Plasma; for APTT / Bas / Eos / Fbg / Hb / Ht / Lym / MCH / MCHC / MCV / Mono / Neu / PT / Plat / RBC / Ret / WBC: tissue Blood; for KIDNEY_L / KIDNEY_R / KIDNEY_TOTAL: tissue Kidney; for LIVER: tissue Liver
[1] = 4 mg/kg, […], dose level Low, time 14 day
[2] = 4 mg/kg, […], dose level Low, time 28 day
[3] = 12 mg/kg, 72 h, dose level Middle, time 3 day
[4] = 12 mg/kg, […], dose level Middle, time 7 day
[5] = 12 mg/kg, […], dose level Middle, time 14 day
[6] = 12 mg/kg, […], dose level Middle, time 28 day
[7] = 40 mg/kg, 72 h, dose level High, time 3 day
[8] = 40 mg/kg, […], dose level High, time 7 day

SMILES: CN(C)c1ncnc2c1ncn2[C@@H]1O[C@H](CO)[C@@H](N)[C@H]1O [PUROMYCIN AMINONUCLEOSIDE]
- gamma-GTP (4 mg/kg, […], dose level Low, time 7 day): 1.6 IU/L
- A/G [1]: 1.1
- ALP [1]: 1081.2 IU/L
- ALT [1]: 35.8 IU/L
- AST [1]: 64.2 IU/L
- BUN [1]: 19.2 mg/dL
- CRE [1]: 0.2 mg/dL
- Ca [1]: 10.9 mg/dL
- Cl [1]: 106.8 meq/L
- DBIL [1]: 0 mg/dL
- GLC [1]: 179.4 mg/dL
- IP [1]: 6.8 mg/dL
- K [1]: 4.2 meq/L
- LDH [1]: 141.2 IU/L
- Na [1]: 142.8 meq/L
- PL [1]: 143.4 mg/dL
- RALB [1]: 2.9 g/dL
- TBIL [1]: 0.002 mg/dL
- TC [1]: 76.8 mg/dL
- TG [1]: 129.2 mg/dL
- TP [1]: 5.5 g/dL
- gamma-GTP [1]: 1.4 IU/L
- A/G [2]: 0.7
- ALP [2]: 666.2 IU/L
- ALT [2]: 34.6 IU/L
- AST [2]: 47 IU/L
- BUN [2]: 17.2 mg/dL
- CRE [2]: 0.2 mg/dL
- Ca [2]: 10.4 mg/dL
- Cl [2]: 104.2 meq/L
- DBIL [2]: 0 mg/dL
- GLC [2]: 181.8 mg/dL
- IP [2]: 6.8 mg/dL
- K [2]: 4.3 meq/L
- LDH [2]: 134 IU/L
- Na [2]: 142.4 meq/L
- PL [2]: 334 mg/dL
- RALB [2]: 2.2 g/dL
- TBIL [2]: 0.006 mg/dL
- TC [2]: 203.8 mg/dL
- TG [2]: 254.2 mg/dL
- TP [2]: 5.4 g/dL
- gamma-GTP [2]: 1.2 IU/L
- TERMINAL_BW [3]: 221.5 g
- APTT [3]: 20.8 s
- Bas [3]: 0%
- Eos [3]: 1%
- Fbg [3]: 305.2 mg/dL
- Hb [3]: 13.2 g/dL
- Ht [3]: 38.5%
- Lym [3]: 86.2%
- MCH [3]: 21 pg
- MCHC [3]: 34.2%
- MCV [3]: 61.4 fL
- Mono [3]: 2%
- Neu [3]: 9.8%
- PT [3]: 16 s
- Plat [3]: 119.7 x10_4/uL
- RBC [3]: 626.8 x10_4/ul
- Ret [3]: 4.3%
- WBC [3]: 80.4 x10_2/uL
- KIDNEY_L [3]: 0.9 g
- KIDNEY_R [3]: 1 g
- KIDNEY_TOTAL [3]: 1.9 g
- LIVER [3]: 9.9 g
- A/G [3]: 1.3
- ALP [3]: 1198.8 IU/L
- ALT [3]: 39.4 IU/L
- AST [3]: 69.4 IU/L
- BUN [3]: 20.8 mg/dL
- CRE [3]: 0.2 mg/dL
- Ca [3]: 11.2 mg/dL
- Cl [3]: 104.6 meq/L
- DBIL [3]: 0 mg/dL
- GLC [3]: 174.4 mg/dL
- IP [3]: 8.2 mg/dL
- K [3]: 4.4 meq/L
- LDH [3]: 145.6 IU/L
- Na [3]: 141.2 meq/L
- PL [3]: 133 mg/dL
- RALB [3]: 3 g/dL
- TBIL [3]: 0.016 mg/dL
- TC [3]: 66.6 mg/dL
- TG [3]: 67.4 mg/dL
- TP [3]: 5.4 g/dL
- gamma-GTP [3]: 1.8 IU/L
- TERMINAL_BW [4]: 243.7 g
- TERMINAL_BW [5]: 292.3 g
- TERMINAL_BW [6]: 237.1 g
- APTT [4]: 21 s
- Bas [4]: 0%
- Eos [4]: 1%
- Fbg [4]: 304.2 mg/dL
- Hb [4]: 13.5 g/dL
- Ht [4]: 38.5%
- Lym [4]: 74.4%
- MCH [4]: 20.6 pg
- MCHC [4]: 35%
- MCV [4]: 58.9 fL
- Mono [4]: 2.6%
- Neu [4]: 21.6%
- PT [4]: 15.8 s
- Plat [4]: 107.5 x10_4/uL
- RBC [4]: 653.8 x10_4/ul
- Ret [4]: 3.3%
- WBC [4]: 93.9 x10_2/uL
- APTT [5]: 18.6 s
- Bas [5]: 0%
- Eos [5]: 0.8%
- Fbg [5]: 561 mg/dL
- Hb [5]: 13.1 g/dL
- Ht [5]: 35.4%
- Lym [5]: 78.2%
- MCH [5]: 20.3 pg
- MCHC [5]: 36.9%
- MCV [5]: 55.1 fL
- Mono [5]: 2.8%
- Neu [5]: 17%
- PT [5]: 13.1 s
- Plat [5]: 181.7 x10_4/uL
- RBC [5]: 641.8 x10_4/ul
- Ret [5]: 1.3%
- WBC [5]: 140.4 x10_2/uL
- APTT [6]: 15.1 s
- Bas [6]: 0%
- Eos [6]: 0.5%
- Fbg [6]: 627 mg/dL
- Hb [6]: 9.5 g/dL
- Ht [6]: 23.8%
- Lym [6]: 60.8%
- MCH [6]: 18.8 pg
- MCHC [6]: 40%
- MCV [6]: 46.9 fL
- Mono [6]: 5.2%
- Neu [6]: 32%
- PT [6]: 15.2 s
- Plat [6]: 137.6 x10_4/uL
- RBC [6]: 498.2 x10_4/ul
- Ret [6]: 0.5%
- WBC [6]: 106.1 x10_2/uL
- KIDNEY_L [4]: 1 g
- KIDNEY_R [4]: 1 g
- KIDNEY_TOTAL [4]: 2 g
- KIDNEY_L [5]: 1.6 g
- KIDNEY_R [5]: 1.6 g
- KIDNEY_TOTAL [5]: 3.2 g
- KIDNEY_L [6]: 2.3 g
- KIDNEY_R [6]: 2.3 g
- KIDNEY_TOTAL [6]: 4.6 g
- LIVER [4]: 10.4 g
- LIVER [5]: 12.1 g
- LIVER [6]: 12.8 g
- A/G [4]: 1.1
- ALP [4]: 1114.8 IU/L
- ALT [4]: 36.8 IU/L
- AST [4]: 66.4 IU/L
- BUN [4]: 21.8 mg/dL
- CRE [4]: 0.2 mg/dL
- Ca [4]: 10.8 mg/dL
- Cl [4]: 107.2 meq/L
- DBIL [4]: 0.002 mg/dL
- GLC [4]: 174.8 mg/dL
- IP [4]: 7.5 mg/dL
- K [4]: 4.2 meq/L
- LDH [4]: 139.2 IU/L
- Na [4]: 140.4 meq/L
- PL [4]: 139.2 mg/dL
- RALB [4]: 2.8 g/dL
- TBIL [4]: 0.014 mg/dL
- TC [4]: 76.2 mg/dL
- TG [4]: 86.8 mg/dL
- TP [4]: 5.3 g/dL
- gamma-GTP [4]: 1.4 IU/L
- A/G [5]: 0.5
- ALP [5]: 267.4 IU/L
- ALT [5]: 31.4 IU/L
- AST [5]: 35.8 IU/L
- BUN [5]: 77.4 mg/dL
- CRE [5]: 0.5 mg/dL
- Ca [5]: 9.3 mg/dL
- Cl [5]: 107.6 meq/L
- DBIL [5]: 0 mg/dL
- GLC [5]: 180.8 mg/dL
- IP [5]: 7.8 mg/dL
- K [5]: 4 meq/L
- LDH [5]: 214.2 IU/L
- Na [5]: 143.4 meq/L
- PL [5]: 533 mg/dL
- RALB [5]: 1.3 g/dL
- TBIL [5]: 0 mg/dL
- TC [5]: 344.6 mg/dL
- TG [5]: 454 mg/dL
- TP [5]: 4.1 g/dL
- gamma-GTP [5]: 1.8 IU/L
- A/G [6]: 0.4
- ALP [6]: 137.2 IU/L
- ALT [6]: 61 IU/L
- AST [6]: 53.2 IU/L
- BUN [6]: 86.5 mg/dL
- CRE [6]: 1.1 mg/dL
- Ca [6]: 8.4 mg/dL
- Cl [6]: 104 meq/L
- DBIL [6]: 0 mg/dL
- GLC [6]: 158.8 mg/dL
- IP [6]: 8.8 mg/dL
- K [6]: 3.9 meq/L
- LDH [6]: 391.8 IU/L
- Na [6]: 142.2 meq/L
- PL [6]: 854.5 mg/dL
- RALB [6]: 1.3 g/dL
- TBIL [6]: 0.0025 mg/dL
- TC [6]: 589 mg/dL
- TG [6]: 351 mg/dL
- TP [6]: 4.5 g/dL
- gamma-GTP [6]: 2.8 IU/L
- TERMINAL_BW [7]: 218.3 g
- APTT [7]: 19.2 s
- Bas [7]: 0%
- Eos [7]: 0.6%
- Fbg [7]: 356 mg/dL
- Hb [7]: 13.3 g/dL
- Ht [7]: 38.2%
- Lym [7]: 88.4%
- MCH [7]: 20.4 pg
- MCHC [7]: 34.7%
- MCV [7]: 58.9 fL
- Mono [7]: 2.4%
- Neu [7]: 7.4%
- PT [7]: 15.9 s
- Plat [7]: 136.4 x10_4/uL
- RBC [7]: 649 x10_4/ul
- Ret [7]: 2%
- WBC [7]: 82.2 x10_2/uL
- KIDNEY_L [7]: 0.9 g
- KIDNEY_R [7]: 1 g
- KIDNEY_TOTAL [7]: 1.9 g
- LIVER [7]: 9.6 g
- A/G [7]: 1.2
- ALP [7]: 892.8 IU/L
- ALT [7]: 40.6 IU/L
- AST [7]: 62 IU/L
- BUN [7]: 24.2 mg/dL
- CRE [7]: 0.2 mg/dL
- Ca [7]: 12.3 mg/dL
- Cl [7]: 102.8 meq/L
- DBIL [7]: 0 mg/dL
- GLC [7]: 179.6 mg/dL
- IP [7]: 10.8 mg/dL
- K [7]: 4.4 meq/L
- LDH [7]: 154.8 IU/L
- Na [7]: 141.2 meq/L
- PL [7]: 153 mg/dL
- RALB [7]: 3 g/dL
- TBIL [7]: 0.022 mg/dL
- TC [7]: 82 mg/dL
- TG [7]: 64.4 mg/dL
- TP [7]: 5.5 g/dL
- gamma-GTP [7]: 1.8 IU/L
- TERMINAL_BW [8]: 221.5 g
- APTT [8]: 18 s
- Bas [8]: 0%
- Eos [8]: 0.6%
- Fbg [8]: 621.8 mg/dL
- Hb [8]: 13.7 g/dL
- Ht [8]: 37.4%
- Lym [8]: 84.8%
- MCH [8]: 20.5 pg
- MCHC [8]: 36.6%
- MCV [8]: 56.2 fL
- Mono [8]: 2.6%
- Neu [8]: 10.8%
- PT [8]: 13 s
- Plat [8]: 106.2 x10_4/uL
- RBC [8]: 665.2 x10_4/ul
- Ret [8]: 0.8%
- WBC [8]: 108.1 x10_2/uL
- KIDNEY_L [8]: 1.2 g
- KIDNEY_R [8]: 1.2 g
- KIDNEY_TOTAL [8]: 2.4 g
- LIVER [8]: 8.2 g
- A/G [8]: 0.4
- ALP [8]: 264.4 IU/L
- ALT [8]: 65.8 IU/L
- AST [8]: 78.6 IU/L
- BUN [8]: 166.8 mg/dL
- CRE [8]: 1 mg/dL
- Ca [8]: 9.1 mg/dL
- Cl [8]: 101 meq/L
- DBIL [8]: 0 mg/dL
- GLC [8]: 164.4 mg/dL
- IP [8]: 12.6 mg/dL
- K [8]: 5 meq/L
- LDH [8]: 484 IU/L
- Na [8]: 135.4 meq/L
- PL [8]: 387.2 mg/dL
- RALB [8]: 1.1 g/dL
- TBIL [8]: 0.01 mg/dL
- TC [8]: 266.6 mg/dL
- TG [8]: 125.6 mg/dL
- TP [8]: 3.5 g/dL
- gamma-GTP [8]: 2.4 IU/L
